Measurements as given in ChEMBL document CHEMBL1201862, “PubChem BioAssay data set” (2004).
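Briefly, cells in 96-well plates were exposed to five compound concentrations for 48 h, and endpoints were estimated by linear interpolation. GI50 = concentration required for 50% inhibition of growth.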 Calls of active or inactive are those of the source. Cut-off read from the data, not from the text of the source: active = GI50 up to about 1.1 µM and inactive = higher.

How the values were obtained:
Test in all cases: NCI anticancer screen, dose series, 48 h
[1] = system: 786-0
[2] = system: BT-549
[3] = system: CAKI-1
[4] = system: CCRF-CEM
[5] = system: HOP-92
[6] = system: M14
[7] = system: MCF7
[8] = system: MDA-MB-231
[9] = system: MDA-N
[10] = system: NCI/ADR-RES
[11] = system: OVCAR-3
[12] = system: OVCAR-4
[13] = system: OVCAR-5
[14] = system: OVCAR-8
[15] = system: SNB-75
[16] = system: UACC-257
[17] = system: UO-31
[18] = system: T47D

COCCNC1CCC2(SCCS2)c2[nH]c3ccccc3c21 (stereo not given) was tested, and the GI50 [1] was 31.8 µM (inactive), the GI50 [2] was 20.6 µM (inactive) and the GI50 [3] was 39.1 µM (inactive). The GI50 [4] was 35.2 µM (inactive), the GI50 [5] was 21.8 µM (inactive) and the GI50 [6] was 16 µM (inactive). For the same molecule, the GI50 [7] was 16.8 µM (inactive), the GI50 [8] was 20.3 µM (inactive) and the GI50 [9] was 22.9 µM (inactive). For the same molecule, the GI50 [10] was 37.5 µM (inactive), the GI50 [11] was 27.2 µM (inactive) and the GI50 [12] was 97.1 µM (inactive). The GI50 [13] was > 100 µM (inactive), the GI50 [14] was 46.1 µM (inactive) and the GI50 [15] was 90.8 µM (inactive). The GI50 [16] was 18 µM (inactive) and the GI50 [17] was > 10 µM (inactive).
In the case of O=P(Oc1ccc(Cl)cc1)(Oc1ccc(Cl)cc1)N1CC1, the GI50 [1] is reported as > 10 µM (inactive), the GI50 [2] is reported as > 10 µM (inactive) and the GI50 [4] is reported as 0.174 µM (active). For the same molecule, the GI50 [6] was > 10 µM (inactive), the GI50 [7] was > 10 µM (inactive) and the GI50 [8] was > 10 µM (inactive). For the same molecule, the GI50 [9] was > 10 µM (inactive), the GI50 [10] was > 10 µM (inactive) and the GI50 [11] was > 10 µM (inactive). For the same molecule, the GI50 [12] was > 10 µM (inactive), the GI50 [13] was > 10 µM (inactive) and the GI50 [14] was > 10 µM (inactive). The GI50 [15] was > 10 µM (inactive), the GI50 [18] was > 10 µM (inactive) and the GI50 [16] was 4.38 µM (inactive). For the same molecule, the GI50 [17] was > 10 µM (inactive).
For COc1ccc(Nc2cc(O)nc(O)n2)cc1, the GI50 [1] was > 100 µM (inactive), the GI50 [2] was > 100 µM (inactive) and the GI50 [4] was > 100 µM (inactive). The GI50 [5] was > 100 µM (inactive), the GI50 [6] was > 100 µM (inactive) and the GI50 [7] was > 100 µM (inactive). The GI50 [8] was > 100 µM (inactive), the GI50 [9] was > 100 µM (inactive) and the GI50 [10] was > 100 µM (inactive). For the same molecule, the GI50 [11] was > 100 µM (inactive), the GI50 [12] was > 100 µM (inactive) and the GI50 [13] was > 100 µM (inactive). For the same molecule, the GI50 [14] was > 100 µM (inactive), the GI50 [15] was 84.3 µM (inactive) and the GI50 [16] was > 100 µM (inactive). For the same molecule, the GI50 [17] was > 100 µM (inactive).
For COc1ccc(-n2c(N)c(C#N)c(C#N)c2-c2ccccc2)cc1, the GI50 [1] was 45.3 µM (inactive), the GI50 [2] was 19.1 µM (inactive) and the GI50 [3] was > 100 µM (inactive). For the same molecule, the GI50 [4] was > 100 µM (inactive), the GI50 [5] was 10.1 µM (inactive) and the GI50 [6] was > 100 µM (inactive). The GI50 [7] was > 100 µM (inactive), the GI50 [8] was > 100 µM (inactive) and the GI50 [10] was > 100 µM (inactive). The GI50 [11] was > 100 µM (inactive), the GI50 [12] was 15.1 µM (inactive) and the GI50 [13] was > 100 µM (inactive). For the same molecule, the GI50 [14] was 84.7 µM (inactive), the GI50 [15] was 2.74 µM (inactive) and the GI50 [18] was 4.57 µM (inactive). The GI50 [16] was > 100 µM (inactive) and the GI50 [17] was > 100 µM (inactive).
In the case of CC(=O)Oc1c(-c2ccccc2)oc2ccccc12, the GI50 [1] is reported as 4.02 µM (inactive), the GI50 [2] is reported as 2.65 µM (inactive) and the GI50 [3] is reported as 1.11 µM (active). For the same molecule, the GI50 [4] was 1.58 µM (inactive), the GI50 [5] was 2.4 µM (inactive) and the GI50 [6] was 2.02 µM (inactive). For the same molecule, the GI50 [7] was 2.11 µM (inactive), the GI50 [8] was 1.45 µM (inactive) and the GI50 [10] was 2.66 µM (inactive). For the same molecule, the GI50 [11] was 2.12 µM (inactive), the GI50 [12] was 3.19 µM (inactive) and the GI50 [13] was 1.85 µM (inactive). For the same molecule, the GI50 [14] was 2.88 µM (inactive), the GI50 [15] was 1.57 µM (inactive) and the GI50 [18] was 1.98 µM (inactive). The GI50 [16] was 2.59 µM (inactive) and the GI50 [17] was 1.61 µM (inactive).
In the case of O=C1C(=C(C(F)(F)Cl)C(F)(F)Cl)C2CCC1C2 (stereo not given), the GI50 [1] is reported as 1.87 µM (inactive), the GI50 [2] is reported as 1.58 µM (inactive) and the GI50 [4] is reported as 0.00986 µM (active). The GI50 [5] was 2.58 µM (inactive), the GI50 [6] was 1.16 µM (inactive) and the GI50 [7] was 2.49 µM (inactive). The GI50 [8] was 1.56 µM (inactive), the GI50 [10] was 2.15 µM (inactive) and the GI50 [11] was 2.45 µM (inactive). The GI50 [12] was 2.84 µM (inactive), the GI50 [13] was 2.96 µM (inactive) and the GI50 [14] was 1.94 µM (inactive). The GI50 [15] was 4.3 µM (inactive), the GI50 [18] was 1.38 µM (inactive) and the GI50 [16] was 1.9 µM (inactive). For the same molecule, the GI50 [17] was 2.49 µM (inactive).
For CNNC1=NS(=O)(=O)c2cc(C(=O)OC)c(Cl)cc2S1, the GI50 [1] was > 10 µM (inactive), the GI50 [2] was > 10 µM (inactive) and the GI50 [3] was > 10 µM (inactive). For the same molecule, the GI50 [4] was > 10 µM (inactive), the GI50 [6] was > 10 µM (inactive) and the GI50 [7] was > 10 µM (inactive). For the same molecule, the GI50 [8] was > 10 µM (inactive), the GI50 [9] was > 10 µM (inactive) and the GI50 [10] was > 10 µM (inactive). For the same molecule, the GI50 [11] was > 10 µM (inactive), the GI50 [12] was > 10 µM (inactive) and the GI50 [13] was > 10 µM (inactive). The GI50 [14] was > 10 µM (inactive), the GI50 [15] was > 10 µM (inactive) and the GI50 [18] was > 10 µM (inactive). For the same molecule, the GI50 [16] was > 10 µM (inactive) and the GI50 [17] was 0.001 µM (active).
In the case of ClC1(Cl)C2CCOC21n1cnc2ccccc21 (stereo not given), the GI50 [1] is reported as > 100 µM (inactive), the GI50 [2] is reported as > 100 µM (inactive) and the GI50 [3] is reported as > 100 µM (inactive). The GI50 [4] was > 100 µM (inactive), the GI50 [6] was > 100 µM (inactive) and the GI50 [7] was > 100 µM (inactive). The GI50 [8] was > 100 µM (inactive), the GI50 [9] was > 100 µM (inactive) and the GI50 [10] was > 100 µM (inactive). For the same molecule, the GI50 [11] was > 100 µM (inactive), the GI50 [12] was 67.3 µM (inactive) and the GI50 [13] was > 100 µM (inactive). For the same molecule, the GI50 [14] was > 100 µM (inactive), the GI50 [15] was > 100 µM (inactive) and the GI50 [18] was > 100 µM (inactive). For the same molecule, the GI50 [17] was 53.8 µM (inactive).
S=c1sc2c(s1)SCCCCSCCCCSc1sc(=S)sc1SCCCCSCCCCS2 was tested, and the GI50 [1] was 68.5 µM (inactive), the GI50 [2] was > 100 µM (inactive) and the GI50 [3] was > 100 µM (inactive). The GI50 [4] was > 100 µM (inactive), the GI50 [6] was > 100 µM (inactive) and the GI50 [7] was > 100 µM (inactive). The GI50 [8] was > 100 µM (inactive), the GI50 [9] was > 100 µM (inactive) and the GI50 [10] was > 100 µM (inactive). For the same molecule, the GI50 [11] was > 100 µM (inactive), the GI50 [13] was > 100 µM (inactive) and the GI50 [14] was > 100 µM (inactive). The GI50 [15] was 18.6 µM (inactive), the GI50 [18] was > 100 µM (inactive) and the GI50 [16] was > 100 µM (inactive). For the same molecule, the GI50 [17] was > 100 µM (inactive).
C=CCN1C[C@H](C)N([C@H](c2ccc(C(=O)N(CC)CC)cc2)c2cccc(OC)c2)C[C@H]1C [SNC-80] was tested, and the GI50 [1] was > 100 µM (inactive), the GI50 [2] was 41.1 µM (inactive) and the GI50 [3] was > 100 µM (inactive). The GI50 [5] was 5.11 µM (inactive), the GI50 [6] was 33.7 µM (inactive) and the GI50 [7] was 39.1 µM (inactive). For the same molecule, the GI50 [8] was 77.8 µM (inactive), the GI50 [9] was 53.1 µM (inactive) and the GI50 [10] was 39.4 µM (inactive). For the same molecule, the GI50 [11] was 18.3 µM (inactive), the GI50 [12] was 73.8 µM (inactive) and the GI50 [13] was > 100 µM (inactive). For the same molecule, the GI50 [14] was > 100 µM (inactive), the GI50 [18] was 17 µM (inactive) and the GI50 [16] was 19.5 µM (inactive). For the same molecule, the GI50 [17] was 62.2 µM (inactive).
With COc1cc(C2(O)c3ccccc3C3=NCCN32)cc(OC)c1OC (stereo not given) the GI50 [1] was > 100 µM (inactive), the GI50 [2] was > 100 µM (inactive) and the GI50 [3] was > 100 µM (inactive). For the same molecule, the GI50 [4] was > 100 µM (inactive), the GI50 [5] was > 100 µM (inactive) and the GI50 [8] was > 100 µM (inactive). The GI50 [9] was > 100 µM (inactive), the GI50 [10] was > 100 µM (inactive) and the GI50 [11] was > 100 µM (inactive). The GI50 [12] was > 100 µM (inactive), the GI50 [15] was > 100 µM (inactive) and the GI50 [18] was > 100 µM (inactive). For the same molecule, the GI50 [16] was > 100 µM (inactive) and the GI50 [17] was > 100 µM (inactive).
With Cc1ccc(S(=O)(=O)NNC(C[N+](=O)[O-])c2ccccc2)cc1 (stereo not given) the GI50 [1] was 22.6 µM (inactive), the GI50 [2] was 15.6 µM (inactive) and the GI50 [3] was 22.5 µM (inactive). For the same molecule, the GI50 [4] was > 100 µM (inactive), the GI50 [5] was 39.8 µM (inactive) and the GI50 [6] was 5.65 µM (inactive). The GI50 [7] was 3.88 µM (inactive), the GI50 [8] was 28.4 µM (inactive) and the GI50 [10] was 54.6 µM (inactive). For the same molecule, the GI50 [11] was 21.7 µM (inactive), the GI50 [12] was 15.8 µM (inactive) and the GI50 [13] was 44.8 µM (inactive). For the same molecule, the GI50 [14] was 22 µM (inactive), the GI50 [15] was 22.7 µM (inactive) and the GI50 [18] was 10.9 µM (inactive). The GI50 [16] was 19.7 µM (inactive) and the GI50 [17] was 22.3 µM (inactive).
